Test: xn = mol fraction of the nth substance listed
Conditions: 308.15 K, Liquid, Vibrating tube method

COC(=O)OC [dimethyl carbonate] + CCCCCCCC
mass density [kg/m3]
Conditions | x1 = 0.0535 | x1 = 0.0978 | x1 = 0.3935 | x1 = 0.496 | x1 = 0.5475 | x1 = 0.5937 | x1 = 0.7002 | x1 = 0.8013 | x1 = 0.8979 | x1 = 0.9502
5000 kPa | – | – | – | – | – | 841 | 882.6 | 929.2 | 984.6 | 1018.1
10000 kPa | 708.3 | 716.2 | 782.8 | 812.4 | 829.1 | 845.9 | 887.5 | 934.4 | 989.6 | 1023.1
20000 kPa | 716.3 | 724.3 | 791.5 | 821.3 | 838.1 | 854.9 | 896.6 | 943.4 | 998.7 | 1032.1
30000 kPa | 723.7 | 731.6 | 799.6 | 829.5 | 846.4 | 863.3 | 905 | 951.9 | 1007.1 | 1040.4
40000 kPa | 730.4 | 738.4 | 806.9 | 836.9 | 853.9 | 870.8 | 912.8 | 959.7 | 1015 | 1048.3

— the NIST ThermoML archive (doi:10.1016/j.jct.2012.11.011)
